The values that follow come from ChEMBL document CHEMBL5331083, “Targeting ferroptosis: Paving new roads for drug design and discovery” (Eur J Med Chem, 2023).

What all share (format): functional, cell-based
Test [1] can be described thus: Inhibition of erastin-induced cell death in human HT-1080 cells.
Test [2] concerns HT-22. Nature of the test: Inhibition of erastin-induced ferroptosis in mouse HT-22 cells incubated for 24 hrs by MTT assay. Particulars: HT-22, 24 h. (In general: Formazan colour is commonly taken as a measure of viable cells.)
Test [3] has as its system HT-22. The test can be described thus: Inhibition of RSL3-induced ferroptosis in mouse HT-22 cells incubated for 24 hrs by MTT assay. Particulars: HT-22, 24 h.
The test system of another test is MCF7. The test can be described thus: Cytotoxicity against human MCF7 cells incubated for 48 hrs by MTT assay. As to conditions: MCF7, 48 h.
Test [4] can be described thus: Inhibition of ferroptosis in tamoxifen induced Gpx4-/- mouse MEF cells.

In general, IC50 refers to the concentration at which inhibition is half-maximal. The compound `CCOC(=O)c1ccc(NC2CCCCC2)c(N)c1` had an IC50 in test [1] of 0.095 µM.
One may read the EC50 as the concentration needed to bring the measured effect to its halfway point. Low readings indicate greater potency, high ones weaker potency. For `CCO[C@@H]1C[C@@H]2C[C@@H]([C@@]3(C)[C@H](C)C[C@H](OC(C)=O)[C@]4(COC(C)=O)[C@@H]3CC[C@H](OC(=O)C(C)CC)[C@]43CO3)O[C@@H]2O1` (stereo partly specified), the EC50 was 4.1 µM in the test with HT-22 [2] and 3.6 µM in the test with HT-22 [3].
With `CCOC(=O)c1ccc(NC2CCCCC2)c(NCc2ccccc2)c1`, in test [1], the IC50 was determined as 0.006 µM.
Compound `COc1cc(O)c2c(=O)cc(-c3ccc(O)c(-c4c(O)cc5oc(-c6ccc(O)cc6)cc(=O)c5c4OC)c3)oc2c1` gave an IC50 with MCF7 of 11.9 µM.
On to `Clc1cccc(CNC2=Nc3ccccc3NC23CCNCC3)c1`, for which the IC50 in test [4] was determined as 0.022 µM.
